Measurements taken from patent US20260242419A1, “A CYCLIC PEPTIDE FOR TRAPPING INTERLEUKIN-1 BETA” (Merck Sharp & Dohme LLC, priority 2023, published 2026).
Non-standard residues stand in square brackets, D forms with d. Residues, ends and D or L forms follow the SMILES beside them. dPro(4R-(4-pyridylmethyl)) = O=C(O)[C@H]1C[C@@H](Cc2ccncc2)CN1; Trp(βS-Me,4-F) = C[C@@H](c1c[nH]c2cccc(F)c12)[C@H](N)C(=O)O; Bip(4'-COOH) = N[C@@H](Cc1ccc(-c2ccc(C(=O)O)cc2)cc1)C(=O)O; Trp(4-Cl) = N[C@@H](Cc1c[nH]c2cccc(Cl)c12)C(=O)O; Ala(pyrimidin-5-yl) = N[C@@H](Cc1cncnc1)C(=O)O; Phe(4-COOH) = N[C@@H](Cc1ccc(C(=O)O)cc1)C(=O)O; Trp(4-F) = N[C@@H](Cc1c[nH]c2cccc(F)c12)C(=O)O; Bip = N[C@@H](Cc1ccc(-c2ccccc2)cc1)C(=O)O; Pro(cis-4-F) = O=C(O)[C@@H]1C[C@H](F)CN1; Dap(CONH2) = NC(=O)NC[C@H](N)C(=O)O; d(αMeD) = C[C@@](N)(CC(=O)O)C(=O)O; 4Pal = N[C@@H](Cc1ccncc1)C(=O)O; aThr = C[C@H](O)[C@H](N)C(=O)O; dOrn = NCCC[C@@H](N)C(=O)O; dDab = NCC[C@@H](N)C(=O)O; dDap = NC[C@@H](N)C(=O)O; Dab = NCC[C@H](N)C(=O)O; Nva = CCC[C@H](N)C(=O)O; Aib = CC(C)(N)C(=O)O

Target: T1, IL-1β (Homo sapiens, UniProt P01584)
T1 construct: purchased BioLegend 579404
T1 sequence (P01584 117-269): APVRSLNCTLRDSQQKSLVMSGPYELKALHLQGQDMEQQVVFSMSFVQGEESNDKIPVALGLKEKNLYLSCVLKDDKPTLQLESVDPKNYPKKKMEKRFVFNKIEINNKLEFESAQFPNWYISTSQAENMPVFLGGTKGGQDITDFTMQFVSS
Assay: IL-6 assay in MRC5 cells: inhibition of IL-1β induced IL-6 secretion (AlphaLISA)
Type: cell-based
Conditions: inhibition of IL-1β induced IL-6 secretion in MRC5 cells; compound pre-incubated 1 hour with recombinant human IL-1β; read-out: MRC5 IC50
Procedure, shortened: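 Compound was pre-incubated 1 h at ambient temperature with recombinant human IL-1β at 2λ EC80 before adding human lung fibroblast MRC5 cells (3000/well) in EMEM with 0.025% BSA. After overnight culture at 37 °C, 5% CO2, secreted IL-6 in conditioned medium was measured by AlphaLISA; IC50 from 4-parameter logistic fits.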

**Q.** Which IC50 does the source give for `C[C@@H](c1c[nH]c2cccc(F)c12)[C@@H]1NC(=O)[C@@H]2C[C@H](F)CN2C(=O)CNC(=O)[C@H](Cc2ccc(C(=O)O)cc2)NC(=O)[C@H](Cc2ccncc2)NC(=O)[C@H](Cc2ccc(-c3ccc(C(=O)O)cc3)cc2)NC(=O)[C@H]2C[C@@H](Cc3ccncc3)CN2C(=O)CNC(=O)[C@H](CCN)NC(=O)[C@H](CCC(N)=O)NC(=O)[C@@H](Cc2ccccc2)NC(=O)[C@@](C)(CC(=O)O)NC(=O)[C@H](Cc2c[nH]c3ccccc23)NC(=O)[C@H](CO)NC(=O)C(C)(C)NC1=O` [Example 243] (cyclo([Bip(4'-COOH)][4Pal][Phe(4-COOH)]G[Pro(cis-4-F)][Trp(βS-Me,4-F)][Aib]SW[d(αMeD)][dF]Q[Dab]G[dPro(4R-(4-pyridylmethyl))])) here?
**A.** 0.022 nM

**Q.** With `C[C@@H](c1c[nH]c2cccc(F)c12)[C@@H]1NC(=O)[C@@H]2C[C@H](F)CN2C(=O)CNC(=O)[C@H](Cc2ccc(C(=O)O)cc2)NC(=O)[C@H](Cc2ccncc2)NC(=O)[C@H](Cc2ccc(-c3ccccc3)cc2)NC(=O)[C@H]2C[C@@H](Cc3ccncc3)CN2C(=O)CNC(=O)[C@H](CNC(N)=O)NC(=O)[C@H](CCC(N)=O)NC(=O)[C@@H](CCCCN)NC(=O)[C@@](C)(CC(=O)O)NC(=O)[C@H](Cc2c[nH]c3ccccc23)NC(=O)[C@H](CO)NC(=O)C(C)(C)NC1=O` [Example 244] (cyclo([Bip][4Pal][Phe(4-COOH)]G[Pro(cis-4-F)][Trp(βS-Me,4-F)][Aib]SW[d(αMeD)][dK]Q[Dap(CONH2)]G[dPro(4R-(4-pyridylmethyl))])) as the compound, how does the IC50 read?
**A.** 0.03 nM

**Q.** How did the IC50 turn out when `C[C@@H](c1c[nH]c2cccc(F)c12)[C@@H]1NC(=O)[C@@H]2C[C@H](F)CN2C(=O)CNC(=O)[C@H](Cc2ccc(C(=O)O)cc2)NC(=O)[C@H](Cc2ccncc2)NC(=O)[C@H](Cc2ccc(-c3ccccc3)cc2)NC(=O)[C@H]2C[C@@H](Cc3ccncc3)CN2C(=O)CNC(=O)[C@H](CNC(N)=O)NC(=O)[C@H](CCC(N)=O)NC(=O)[C@@H](CCCN)NC(=O)[C@@](C)(CC(=O)O)NC(=O)[C@H](Cc2c[nH]c3ccccc23)NC(=O)[C@H](CO)NC(=O)C(C)(C)NC1=O` [Example 245] (cyclo([Bip][4Pal][Phe(4-COOH)]G[Pro(cis-4-F)][Trp(βS-Me,4-F)][Aib]SW[d(αMeD)][dOrn]Q[Dap(CONH2)]G[dPro(4R-(4-pyridylmethyl))])) was run?
**A.** 0.027 nM

**Q.** With `C[C@@H](c1c[nH]c2cccc(F)c12)[C@@H]1NC(=O)[C@@H]2C[C@H](F)CN2C(=O)CNC(=O)[C@H](Cc2ccc(C(=O)O)cc2)NC(=O)[C@H](Cc2ccncc2)NC(=O)[C@H](Cc2ccc(-c3ccccc3)cc2)NC(=O)[C@H]2C[C@@H](Cc3ccncc3)CN2C(=O)CNC(=O)[C@H](CNC(N)=O)NC(=O)[C@H](CCC(N)=O)NC(=O)[C@@H](CN)NC(=O)[C@@](C)(CC(=O)O)NC(=O)[C@H](Cc2c[nH]c3ccccc23)NC(=O)[C@H](CO)NC(=O)C(C)(C)NC1=O` [Example 246] (cyclo([Bip][4Pal][Phe(4-COOH)]G[Pro(cis-4-F)][Trp(βS-Me,4-F)][Aib]SW[d(αMeD)][dDap]Q[Dap(CONH2)]G[dPro(4R-(4-pyridylmethyl))])) as the compound, how does the IC50 read?
**A.** 0.031 nM

**Q.** How did the IC50 turn out when `C[C@@H](c1c[nH]c2cccc(F)c12)[C@@H]1NC(=O)[C@@H]2C[C@H](F)CN2C(=O)CNC(=O)[C@H](Cc2ccc(C(=O)O)cc2)NC(=O)[C@H](Cc2ccncc2)NC(=O)[C@H](Cc2ccc(-c3ccccc3)cc2)NC(=O)[C@H]2C[C@@H](Cc3ccncc3)CN2C(=O)CNC(=O)[C@H](CNC(N)=O)NC(=O)[C@H](CCC(N)=O)NC(=O)[C@@H](CCN)NC(=O)[C@@](C)(CC(=O)O)NC(=O)[C@H](Cc2c[nH]c3ccccc23)NC(=O)[C@H](CO)NC(=O)C(C)(C)NC1=O` [Example 247] (cyclo([Bip][4Pal][Phe(4-COOH)]G[Pro(cis-4-F)][Trp(βS-Me,4-F)][Aib]SW[d(αMeD)][dDab]Q[Dap(CONH2)]G[dPro(4R-(4-pyridylmethyl))])) was run?
**A.** 0.03 nM

**Q.** For `C[C@@H](c1c[nH]c2cccc(F)c12)[C@@H]1NC(=O)[C@@H]2C[C@H](F)CN2C(=O)CNC(=O)[C@H](Cc2ccc(C(=O)O)cc2)NC(=O)[C@H](Cc2ccncc2)NC(=O)[C@H](Cc2ccc(-c3ccccc3)cc2)NC(=O)[C@H]2C[C@@H](Cc3ccncc3)CN2C(=O)CNC(=O)[C@H](CCN)NC(=O)[C@H](CCC(N)=O)NC(=O)[C@@H](CCN)NC(=O)[C@@](C)(CC(=O)O)NC(=O)[C@H](Cc2c[nH]c3ccccc23)NC(=O)[C@H](CO)NC(=O)C(C)(C)NC1=O` [Example 248] (cyclo([Bip][4Pal][Phe(4-COOH)]G[Pro(cis-4-F)][Trp(βS-Me,4-F)][Aib]SW[d(αMeD)][dDab]Q[Dab]G[dPro(4R-(4-pyridylmethyl))])), which IC50 is on record?
**A.** 0.028 nM

**Q.** Which IC50 does the source give for `C[C@@H](c1c[nH]c2cccc(F)c12)[C@@H]1NC(=O)[C@@H]2C[C@H](F)CN2C(=O)CNC(=O)[C@H](Cc2ccc(C(=O)O)cc2)NC(=O)[C@H](Cc2ccncc2)NC(=O)[C@H](Cc2ccc(-c3ccccc3)cc2)NC(=O)[C@H]2C[C@@H](Cc3ccncc3)CN2C(=O)CNC(=O)[C@H](CCN)NC(=O)[C@H](CCC(N)=O)NC(=O)[C@@H](CCC(=O)O)NC(=O)[C@@](C)(CC(=O)O)NC(=O)[C@H](Cc2c[nH]c3ccccc23)NC(=O)[C@H](CO)NC(=O)C(C)(C)NC1=O` [Example 249] (cyclo([Bip][4Pal][Phe(4-COOH)]G[Pro(cis-4-F)][Trp(βS-Me,4-F)][Aib]SW[d(αMeD)][dE]Q[Dab]G[dPro(4R-(4-pyridylmethyl))])) here?
**A.** 0.016 nM

**Q.** `C[C@@H](c1c[nH]c2cccc(F)c12)[C@@H]1NC(=O)[C@@H]2C[C@H](F)CN2C(=O)CNC(=O)[C@H](Cc2ccc(C(=O)O)cc2)NC(=O)[C@H](Cc2ccncc2)NC(=O)[C@H](Cc2ccc(-c3ccccc3)cc2)NC(=O)[C@H]2C[C@@H](Cc3ccncc3)CN2C(=O)CNC(=O)[C@H](CCN)NC(=O)[C@H](CCC(N)=O)NC(=O)[C@@H](CCC(=O)O)NC(=O)C(C)(C)NC(=O)[C@H](Cc2c[nH]c3ccccc23)NC(=O)[C@H](CO)NC(=O)C(C)(C)NC1=O` [Example 250] (cyclo([Bip][4Pal][Phe(4-COOH)]G[Pro(cis-4-F)][Trp(βS-Me,4-F)][Aib]SW[Aib][dE]Q[Dab]G[dPro(4R-(4-pyridylmethyl))])) was tested. Which IC50 did it give?
**A.** 0.027 nM

**Q.** Which IC50 does the source give for `C[C@@H](c1c[nH]c2cccc(F)c12)[C@@H]1NC(=O)[C@@H]2C[C@H](F)CN2C(=O)CNC(=O)[C@H](Cc2ccc(C(=O)O)cc2)NC(=O)[C@H](Cc2ccncc2)NC(=O)[C@H](Cc2ccc(-c3ccc(C(=O)O)cc3)cc2)NC(=O)[C@H]2C[C@@H](Cc3ccncc3)CN2C(=O)CNC(=O)[C@H](CCN)NC(=O)[C@H](CCC(N)=O)NC(=O)[C@H](Cc2cncnc2)NC(=O)[C@@](C)(CC(=O)O)NC(=O)[C@H](Cc2c[nH]c3cccc(Cl)c23)NC(=O)[C@H](CO)NC(=O)C(C)(C)NC1=O` [Example 251] (cyclo([Bip(4'-COOH)][4Pal][Phe(4-COOH)]G[Pro(cis-4-F)][Trp(βS-Me,4-F)][Aib]S[Trp(4-Cl)][d(αMeD)][Ala(pyrimidin-5-yl)]Q[Dab]G[dPro(4R-(4-pyridylmethyl))])) here?
**A.** 0.013 nM

**Q.** Which IC50 does the source give for `C[C@@H](c1c[nH]c2cccc(F)c12)[C@@H]1NC(=O)[C@@H]2C[C@H](F)CN2C(=O)CNC(=O)[C@H](Cc2ccc(C(=O)O)cc2)NC(=O)[C@H](Cc2ccncc2)NC(=O)[C@H](Cc2ccc(-c3ccc(C(=O)O)cc3)cc2)NC(=O)[C@H]2C[C@@H](Cc3ccncc3)CN2C(=O)CNC(=O)[C@H](CCN)NC(=O)[C@H](CCC(N)=O)NC(=O)[C@H](Cc2cncnc2)NC(=O)[C@@](C)(CC(=O)O)NC(=O)[C@H](Cc2c[nH]c3cccc(F)c23)NC(=O)[C@H](CO)NC(=O)C(C)(C)NC1=O` [Example 252] (cyclo([Bip(4'-COOH)][4Pal][Phe(4-COOH)]G[Pro(cis-4-F)][Trp(βS-Me,4-F)][Aib]S[Trp(4-F)][d(αMeD)][Ala(pyrimidin-5-yl)]Q[Dab]G[dPro(4R-(4-pyridylmethyl))])) here?
**A.** 0.013 nM

**Q.** `CCC[C@@H]1NC(=O)[C@@](C)(CC(=O)O)NC(=O)[C@H](Cc2c[nH]c3ccccc23)NC(=O)[C@H](CO)NC(=O)C(C)(C)NC(=O)[C@H]([C@@H](C)c2c[nH]c3cccc(F)c23)NC(=O)[C@@H]2C[C@H](F)CN2C(=O)CNC(=O)[C@H](Cc2ccc(C(=O)O)cc2)NC(=O)[C@H](Cc2ccncc2)NC(=O)[C@H](Cc2ccc(-c3ccc(C(=O)O)cc3)cc2)NC(=O)[C@H]2C[C@@H](Cc3ccncc3)CN2C(=O)CNC(=O)[C@H](CCN)NC(=O)[C@H](CCC(N)=O)NC1=O` [Example 253] (cyclo([Bip(4'-COOH)][4Pal][Phe(4-COOH)]G[Pro(cis-4-F)][Trp(βS-Me,4-F)][Aib]SW[d(αMeD)][Nva]Q[Dab]G[dPro(4R-(4-pyridylmethyl))])) was tested. Which IC50 did it give?
**A.** 0.013 nM

**Q.** With `CO[C@@H](C)[C@@H]1NC(=O)[C@@](C)(CC(=O)O)NC(=O)[C@H](Cc2c[nH]c3ccccc23)NC(=O)[C@H](CO)NC(=O)C(C)(C)NC(=O)[C@H]([C@@H](C)c2c[nH]c3cccc(F)c23)NC(=O)[C@@H]2C[C@H](F)CN2C(=O)CNC(=O)[C@H](Cc2ccc(C(=O)O)cc2)NC(=O)[C@H](Cc2ccncc2)NC(=O)[C@H](Cc2ccc(-c3ccc(C(=O)O)cc3)cc2)NC(=O)[C@H]2C[C@@H](Cc3ccncc3)CN2C(=O)CNC(=O)[C@H](CCN)NC(=O)[C@H](CCC(N)=O)NC1=O` [Example 254] (cyclo([Bip(4'-COOH)][4Pal][Phe(4-COOH)]G[Pro(cis-4-F)][Trp(βS-Me,4-F)][Aib]SW[d(αMeD)][aThr](Me)Q[Dab]G[dPro(4R-(4-pyridylmethyl))])) as the compound, how does the IC50 read?
**A.** 0.013 nM

**Q.** With `CO[C@H](C)[C@@H]1NC(=O)[C@@](C)(CC(=O)O)NC(=O)[C@H](Cc2c[nH]c3ccccc23)NC(=O)[C@H](CO)NC(=O)C(C)(C)NC(=O)[C@H]([C@@H](C)c2c[nH]c3cccc(F)c23)NC(=O)[C@@H]2C[C@H](F)CN2C(=O)CNC(=O)[C@H](Cc2ccc(C(=O)O)cc2)NC(=O)[C@H](Cc2ccncc2)NC(=O)[C@H](Cc2ccc(-c3ccc(C(=O)O)cc3)cc2)NC(=O)[C@H]2C[C@@H](Cc3ccncc3)CN2C(=O)CNC(=O)[C@H](CCN)NC(=O)[C@H](CCC(N)=O)NC1=O` [Example 255] (cyclo([Bip(4'-COOH)][4Pal][Phe(4-COOH)]G[Pro(cis-4-F)][Trp(βS-Me,4-F)][Aib]SW[d(αMeD)]T(Me)Q[Dab]G[dPro(4R-(4-pyridylmethyl))])) as the compound, how does the IC50 read?
**A.** 0.011 nM
